In a melting point compilation (Tetko et al.; mined from patent text by program, amines drawn as free bases though some values may be those of a salt):

With Cc1[nH]cnc1CN1CCC(N)=CC1=O the melting point was 268 to 271 °C. Molecule CCOC(=O)Cc1nc(-c2ccc(Cl)cc2)oc1Oc1ccc(Cl)cc1 has a melting point of 70 to 72 °C. Work on Nc1nc(N)nc(NC2CCCCC2)n1 yielded a melting point of 151 °C. COc1ccc(-n2c(=O)[nH]c3c(-c4ccc(C(F)(F)F)cc4F)ncnc32)cc1 showed a melting point of 296 to 297 °C. Molecule CNc1nc(-c2cccc(NC(=O)c3ccc(N4CCCC4)nc3)c2)c2cc(OC)c(OC)cc2n1 has a melting point of 239 to 241 °C. Molecule CC(=O)CCCCCCCC(=O)c1ccc(OCc2ccccc2)c(OCc2ccccc2)c1 has a melting point of 72 to 74 °C. With Nc1nc2ccccc2c2c1ncn2CCNC(=O)c1ccccc1 the melting point was 295 °C. N#Cc1nccnc1Oc1cccc(C(F)(F)F)c1 showed a melting point of 68 to 70 °C. Work on COC(=O)c1ccc2oc3c(c(=O)c2c1)CCC3=Cc1cccc(C)n1 yielded a melting point of 200 to 202 °C. Work on CC1=NN=C(c2cccc(N)c2)c2cc3c(cc2C1)OCO3 yielded a melting point of 190 to 191 °C. Work on CCN(CC)CC(C)N1c2ccccc2Sc2ccc(C#N)cc21 (centres undefined) yielded a melting point of 83 °C. O=C(O)c1cccc(OCc2c(Cl)cccc2Cl)c1 showed a melting point of 187 to 189 °C. Work on CN1C(=O)N(c2ccccc2Br)Cc2cnc(Nc3ccc4c(c3)OCC(CO)O4)nc21 (centres undefined) yielded a melting point of 156 to 158 °C. With CCCCOc1nc(O)ns1 the melting point was 62 °C. With CC(=O)[C@@H]1C(=O)N(C(=O)OC(C)(C)C)[C@@H]1c1ccccc1 the melting point was 63 to 64 °C. O=C(O)[C@H](Cc1ccc(CC(F)(F)C(F)(F)F)cc1)[C@@H](O)c1cccc(Cl)c1 (racemic) gave a melting point of 150 to 151 °C. Molecule CCc1nc2c(N)nc3ccccc3c2n1CCCNOC has a melting point of 210 to 213 °C. CC(=O)NC(Cc1c[nH]c2ccccc12)C(=O)NCc1cc(C(F)(F)F)cc(C(F)(F)F)c1 (centres undefined) showed a melting point of 171 to 173 °C. For COc1ccc(N2CCN(C)CC2)c2c1OCC(C(=O)Nc1ccc(N3CCOCC3)cc1)C2 (centres undefined), the melting point was 202 to 204 °C. CC(=O)NCCOc1ccc([N+](=O)[O-])cc1O gave a melting point of 165 °C. CC12CC(F)C3C4CCC(=O)C=C4CC(CCCCCCl)C3C1CCC2=O (centres undefined) gave a melting point of 51 to 53 °C. Work on COc1cc(C)cc(OC)c1-c1nc(N)n[nH]1 yielded a melting point of 286 °C. With O=C1CC2(Cc3cc4ccccc4n3C2)C(=O)N1 (centres undefined) the melting point was 215 to 220 °C. O=C1CCC(c2ccc(N3C(=O)c4ccccc4C3=O)cc2)CC1 gave a melting point of 150 to 152 °C. Work on COc1ccc(-c2nc(N3CCCC3)c3c(C)c(C#N)sc3n2)cc1 yielded a melting point of 176 to 178 °C. Molecule O=C(O)c1cc(=O)c2c(OCC(O)COc3ccccc3)cccc2o1 (centres undefined) has a melting point of 88 to 90 °C. With Cc1cc2oc(=O)c3c(c2cc1Cl)CCNC3 the melting point was 184 to 185 °C. CCC(=O)c1cnc2c(O)cccc2c1Nc1ccc(F)cc1C showed a melting point of 143 to 146 °C. Work on O=C(O)c1cc(-n2c(-c3ccccc3)cc3c2CCc2ccccc2-3)ccc1O yielded a melting point of 223 to 225 °C. With OC1(c2ccccc2)Cc2ccccc2C1 the melting point was 54 °C. With O=C(O)Cc1ccc2nc(-c3ccccc3)oc2c1 the melting point was 170 °C. Work on Cc1cc(OCc2coc(/C=C/c3ccc(S(=O)C(F)(F)F)cc3)n2)ccc1CCCCn1ccnn1 (centres undefined) yielded a melting point of 113 to 114 °C. O=CNC1CCc2c([nH]c3ccccc23)C1 (centres undefined) gave a melting point of 123 to 126 °C. Molecule COc1ccc2cc(C(N)=O)ccc2n1 has a melting point of 212 to 214 °C. N#Cc1cc(S(=O)(=O)C(F)(F)F)[nH]c1-c1ccc(Cl)cc1 gave a melting point of 228 to 230 °C. Work on COC(=O)c1cc(Cl)c(N=C2NCCN2C(C)=O)c(Cl)c1 yielded a melting point of 188 to 189 °C. CC(=O)Nc1ccc(S(=O)(=O)Nc2nnc(CC(=O)O)s2)cc1 showed a melting point of 206 to 207 °C. With COc1cc(C=O)ccc1OCCCCCCOC(C)=O the melting point was 74 to 75 °C. Work on Cc1cnc(-c2cc(-c3ccc(Cl)cc3)c(N3CCOCC3)s2)cc1OCC(F)(F)F yielded a melting point of 177 to 178 °C. O=C(/C=C\c1ccccc1)Nc1ccccc1 gave a melting point of 101 to 102 °C. In the case of CC(C)(C)c1cc(C(=O)C(=O)O)cc(C(C)(C)C)c1O, the melting point is reported as 125 to 126 °C. Molecule Cc1ccc(F)cc1C(C)(C)CC(O)(Cn1ccc(=O)c2sccc21)C(F)(F)F (centres undefined) has a melting point of 175 to 176 °C. For CCOC(=O)Cn1cccc(NS(=O)(=O)Cc2ccccc2)c1=O, the melting point was 48 to 49 °C. For COc1ccc(-c2ccc(N3CCCN(c4ccc(-c5ccc(OC)cc5OC)cn4)CC3)nc2)c(OC)c1, the melting point was 161 to 163 °C. In the case of CNC(=O)Nc1cc(C(Cl)(Cl)Cl)ccn1, the melting point is reported as 192 to 195 °C. NCC(O)c1cc(Cl)cc(Cl)n1 (centres undefined) gave a melting point of 117 to 118 °C. In the case of ClC[Si](c1ccc(Cl)cc1)(c1ccc(Cl)cc1)c1ccc(Cl)cc1, the melting point is reported as 89 to 93 °C. Work on CC(C)CNCc1ccc(S(=O)(=O)c2ccc(S(N)(=O)=O)s2)cc1 yielded a melting point of 198 to 200 °C. With COC(=O)c1cc(Cl)c(N)c2c1OCCCN2 the melting point was 92 to 95 °C. COc1ccccc1C1CC(=O)CC(c2ccccc2OC)N1C (centres undefined) showed a melting point of 146 to 148 °C. Molecule O=C(Nc1ccc(C#CCCN2CC=C(c3ccccc3)CC2)nc1)c1cccs1 has a melting point of 187 to 188 °C. With CCOC1(C#N)NC(=O)C(=O)NC1(C#N)OCC (centres undefined) the melting point was 205 to 208 °C. For O=[N+]([O-])c1ccc(CN2CCN(CC(O)COc3cccc4[nH]c5ccccc5c34)CC2)o1 (centres undefined), the melting point was 54 to 59 °C. For Cn1nc(C2CCN(CCn3c(=O)[nH]c4ccccc4c3=O)CC2)c2ccc(F)cc21, the melting point was 250 °C. With OCCSP(=S)(C1CCCCC1)C1CCCCC1 the melting point was 82 to 84 °C. Cc1ccc(S(=O)(=O)Nc2cccc3cc(C(N)=O)[nH]c23)cc1 showed a melting point of 312 to 313 °C. Work on O=S1(=O)N=C(NCC2CC2)Nc2ccc(C(F)(F)F)cc21 yielded a melting point of 266 to 268 °C. COC(=O)c1cc(Cl)c2c(c1OC)CCCN2 showed a melting point of 105 to 108 °C. Work on COc1cc2c(=O)n(CCN3CCN(C)CC3)c3c4cc5c(cc4ncc3c2cc1OC)OCO5 yielded a melting point of 244 to 246 °C. For CC(C)(NCc1ncc[nH]1)c1ccc(Cl)cc1, the melting point was 164 to 165 °C. Work on COc1ccc(C(=O)CCC(C(=O)c2ccc(OCc3ccccc3)cc2)c2ccc(OC)cc2)cc1 (centres undefined) yielded a melting point of 132 to 134 °C. Molecule CNc1nc(NC)nc(OC(F)(F)F)n1 has a melting point of 68 to 72 °C. Molecule NC(=O)C(NC(=O)OCc1ccccc1)C(O)CO (centres undefined) has a melting point of 175 to 176 °C. With O=C(O)CCSCCCCCCCCCCCCF the melting point was 59 °C. With CC(=O)OCC1OC(n2cc(Cc3ccc(Cl)cc3)c3c(Cl)cccc32)C(OC(C)=O)C(OC(C)=O)C1OC(C)=O (centres undefined) the melting point was 214 to 216 °C. With CS(=O)(=O)CCC(=O)NCc1ccc(/C=C/C(c2cc(Cl)c(Cl)c(Cl)c2)C(F)(F)F)cc1Cl (centres undefined) the melting point was 101 to 104 °C. In the case of N#Cc1ccc(C(=O)N2CCc3cc(S(=O)(=O)N4CC(c5ccccc5)NC4=O)ccc32)cc1 (centres undefined), the melting point is reported as 241 to 243 °C. CSc1nc(C)c(Cc2cccnc2)c(=O)[nH]1 gave a melting point of 208 to 211 °C. With COC[C@@H]1C(=O)Nc2ccc(C(F)(F)F)cc2C[C@@H]1c1ccc(OC)cc1 (relative stereo) the melting point was 220 to 228 °C. With Cc1nc2c(O)c(CCC(=O)c3ccccc3OCc3ccccc3)c(C(=O)N(C)C)cc2n1C the melting point was 193 to 194 °C. Molecule COc1ccc(C(=O)NC[C@@H]2CN3C(=O)C[C@H]3O2)cc1 (racemic) has a melting point of 143 °C. Molecule CC(C)(C)n1nnc(-c2ccc(CCC(=O)O)cc2)n1 has a melting point of 88 to 90 °C. Molecule CNC(=O)Nc1coc2ccccc2c1=O has a melting point of 254 °C. In the case of Nc1ccccc1OCCCCCN1CCC(OC(c2ccccc2)c2ccccc2)CC1, the melting point is reported as 80 to 81 °C. CCOC(=O)c1ncn(-c2nncs2)c1S(N)(=O)=O gave a melting point of 168 to 171 °C. In the case of Nc1nc2c(ncn2OCC(O)CP(=O)(O)O)c(=O)[nH]1 (centres undefined), the melting point is reported as 258 to 260 °C. For CCCC(=O)C1=C(O)CC(c2c(C)c(C)c(C)c3ccoc23)CC1=O (centres undefined), the melting point was 130 °C. With CC(C)Cn1c(CCCCNC(=O)c2ccccc2)nc2c(N)nc3ccccc3c21 the melting point was 95 to 101 °C. O=C(Nc1cccc(Cl)c1)C1C(=O)Sc2ccc(Cl)cc21 (centres undefined) gave a melting point of 160 to 163 °C. In the case of O=C(c1ccccc1)c1cc(Cl)cc(I)c1O, the melting point is reported as 110 to 111 °C. COc1c(C)c(C)c(OC)c(CBr)c1C showed a melting point of 71 to 72 °C. Cn1nc(-c2ccc(S(C)(=O)=O)cc2Cl)c2c1CCCC2=O gave a melting point of 208 °C. Molecule CN1CCC(OC(c2cccc(SCC3=NCCN3)c2)c2nc3ccccc3[nH]2)CC1 (centres undefined) has a melting point of 62 °C. CC1(C)SC(c2ccco2)NC1C(=O)O (centres undefined) gave a melting point of 141 to 143 °C. O=C(c1ccc(Cl)cc1)c1cccc2cc[nH]c12 gave a melting point of 148 to 149 °C. With C[C@@H](n1cnc2cc(-c3ccc(C(=N)NCCN)cc3)sc2c1=O)[C@](O)(Cn1cncn1)c1ccc(F)cc1F the melting point was 154 to 161 °C. Molecule O=C(CC(C(=O)O)c1ccccc1)Nc1cc(Cc2n[nH]c(=O)c3ccccc23)ccc1F (centres undefined) has a melting point of 180 to 183 °C. Molecule CCCCc1nc2ccccc2n1Cc1ccc(C(=O)Nc2cccc3[nH]ccc23)cc1 has a melting point of 196 °C. Work on Cc1cn2nc(-c3ccccc3)nc2cc1C(=O)O yielded a melting point of 228 to 233 °C. For Clc1cccc2c1CSCCCN2, the melting point was 71 to 73 °C. Work on OC(CN1CCCCC1)c1cc(-c2ccccc2)on1 (centres undefined) yielded a melting point of 104 to 106 °C. CCCCc1nn(-c2cc(N)ccc2Cl)c(=O)n1Cc1ccc(-c2ccccc2S(=O)(=O)NC(=O)OC(C)(C)C)cc1 showed a melting point of 185 to 188 °C. For O=[N+]([O-])c1cn2c(n1)O[C@@H](COc1ccc(N3CCN(S(=O)(=O)C(F)(F)C(F)(F)C(F)(F)C(F)(F)F)CC3)cc1)CC2, the melting point was 235 to 236 °C. O=C(CCl)N(c1ccccc1)c1cccc(Cl)c1 showed a melting point of 94 to 96.5 °C. In the case of Cc1ccc(-c2cc(=O)cc(C(=O)O)o2)cc1, the melting point is reported as 237 to 238 °C. Work on Cc1ccc(F)c(OCCCC(=O)O)c1 yielded a melting point of 62 to 64 °C. Work on CCOC(=O)C1=Cc2cc(Cl)c(C)c(Cl)c2OC1C(F)(F)F (centres undefined) yielded a melting point of 117 to 120 °C. Work on CCCCCC(CC(=O)Nc1cc(CCC(=O)NC)ccc1C(C)(C)C)c1c(OC)cccc1OC (centres undefined) yielded a melting point of 111 to 112 °C. Work on CCC(=O)N(C)C1CCN(Cc2cc3cccnc3n(-c3ccccc3F)c2=O)CC1 yielded a melting point of 218 to 220 °C. With N#CC1C(=O)c2ccccc2Nc2ccccc21 (centres undefined) the melting point was 195 to 197 °C. In the case of Cc1cc(Cl)c2cc(F)c(OCc3ccccc3)cc2n1, the melting point is reported as 110 to 111 °C. Molecule FC(F)(F)c1ccc2c(c1)NC(=S)c1ccccc1S2 has a melting point of 232 to 233 °C. Work on Oc1c(Sc2ccccc2)sc2ccccc12 yielded a melting point of 71 to 73 °C. O=C1Oc2ccccc2Sc2ccccc21 showed a melting point of 124 °C.
